In test [1] the test system is PC3 (prostate). In words: In vitro cytotoxic activity (MTT) assay, PC3. It counts as cell-based. Conditions: Homo sapiens, PC-3; PC3 cells, exposed for 96 hours; read-out: IC50, 50% inhibition of cell proliferation, PC3 (prostate). The method, then: (§1) Compounds 1-12 were screened for their in vitro cytotoxic activity utilizing a 3-(4,5-dimethyl-thiazol-2-yl)-2,5-diphenyltetrazolium bromide (MTT) assay against selected cancer human cell lines consisting of PC3 (prostate), HCT116 (colon), A375 (melanoma), H1299 (lung), MIAPaCa-2 (pancreas), HL60 (leukemia), MCF7 (breast), MDA-MB-231 (breast) (T. Mosmann, J. Immunol. Meth., 1983, 65, 55-63). The cells were cultured at 37° C. in RMPI1640 medium supplemented with 10% fetal bovine serum, 50 IU/mL penicillin, and 50 μg/mL streptomycin in a 5% CO2 incubator. All cells were sub-cultured 3 times/week by trypsinisation. Viable cells were seeded and allowed to adhere for 12 h before a test drug was added in 96-well plates at an initial density of 1.0×10^5 cells/mL. Tumour cell lines were separately exposed to various concentrations of the tested compounds followed by incubation at a temperature of 37° C. during 96 h inside a medium of fresh RMPI 1640. Cells were subsequently incubated at 37° C. using MTT at 0.5 mg/mL during 4 h. After removal of supernatant, formazan crystals were dissolved in isopropanol and the optical density was measured at 570 nm. CX-4945 was used as a positive control.

The test system of test [2] is HCT116 (colon). The test can be described thus: In vitro cytotoxic activity (MTT) assay, HCT116. It counts as cell-based. The note with it: Homo sapiens, HCT-116; HCT116 cells, exposed for 96 hours; read-out: IC50, 50% inhibition of cell proliferation, HCT116 (colon). The protocol: as §1
Test [3] has as its system A375 (melanoma). In words: In vitro cytotoxic activity (MTT) assay, A375. It counts as cell-based. Conditions: Homo sapiens, A-375; A375 cells, exposed for 96 hours; read-out: IC50, 50% inhibition of cell proliferation, A375 (melanoma). The method, then:
as §1

Test [4] relates to H1299 (lung). The test can be described thus: In vitro cytotoxic activity (MTT) assay, H1299. Format: cell-based. Conditions: Homo sapiens, NCI-H1299; H1299 cells, exposed for 96 hours; read-out: IC50, 50% inhibition of cell proliferation, H1299 (lung). The protocol: as §1
For test [5], the system named is MIAPaCa-2 (pancreas). In words: In vitro cytotoxic activity (MTT) assay, MIAPaCa-2. It counts as cell-based. Conditions: Homo sapiens, MIA PaCa-2; MIAPaCa-2 cells, exposed for 96 hours; read-out: IC50, 50% inhibition of cell proliferation, MIAPaCa-2 (pancreas). The method, then: as §1
The subject of test [6] is HL60 (leukemia). The test can be described thus: In vitro cytotoxic activity (MTT) assay, HL60. It counts as cell-based. The note with it: Homo sapiens, HL-60; HL60 cells, exposed for 96 hours; read-out: IC50, 50% inhibition of cell proliferation, HL60 (leukemia). The method, then:
as §1

For test [7], the system named is MCF7 (breast). The test can be described thus: In vitro cytotoxic activity (MTT) assay, MCF7. Format: cell-based. Conditions: Homo sapiens; MCF7 cells, exposed for 96 hours; read-out: IC50, 50% inhibition of cell proliferation, MCF7 (breast). The protocol:
as §1

Test [8] has as its system MDA-MB-231 (breast). The test can be described thus: In vitro cytotoxic activity (MTT) assay, MDA-MB-231. Format: cell-based. The note with it: Homo sapiens; MDA-MB-231 cells, exposed for 96 hours; read-out: IC50, 50% inhibition of cell proliferation, MDA-MB-231 (breast). The method, then: as §1
Test [9] addresses T1, recombinant human CK2 (RRββ-holoenzyme) (Homo sapiens, UniProt P68400).
T1 construct: purchased Millipore
In words: CK2 Kinase Assay (33P-ATP, filter plate). Format: biochemical. Conditions: final ATP 15 μM, 10 min at 30° C., eight concentrations; read-out: protein kinase CK2 IC50. The protocol: CK2 Kinase Assay was conducted using the protocol as described in Pierre F. et al; J. Med. Chem. 2011, 54, 635-654. The tested compounds in aqueous solution were added at a volume of 10 μL to a reaction mixture comprising 10 μL of assay dilution buffer (ADB; 20 mM MOPS, pH 7.2, 25 mM β-glycerol phosphate, 5 mM EGTA, 1 mM sodium orthovanadate, and 1 mM dithiothreitol), 10 μL of substrate peptide (RRRDDDSDDD, dissolved in ADB at a concentration of 1 mM), 10 μL of recombinant human CK2 (RRββ-holoenzyme, 25 ng dissolved in ADB; Millipore). Reactions were initiated by the addition of 10 μL of ATP solution (90% 75 mMMgCl2, 75 μM ATP (final ATP concentration:15 μM) dissolved in ADB; 10% [γ-33P] ATP (stock 1 mCi/100 μL; 3000 Ci/mmol (Perkin-Elmer) and maintained for 10 min at 30° C. The reactions were quenched with 100 μL of 0.75% phosphoric acid and then transferred to and filtered through a phosphor cellulose filter plate (Millipore). After washing each well five times with 0.75% phosphoric acid, the plate was dried under vacuum for 5 min and, following the addition of 15 μL of scintillation fluid to each well, the residual radioactivity was measured using a Wallac luminescence counter. The IC50 values were derived from eight concentrations of test inhibitors.

T1 sequence (P68400 whole entry): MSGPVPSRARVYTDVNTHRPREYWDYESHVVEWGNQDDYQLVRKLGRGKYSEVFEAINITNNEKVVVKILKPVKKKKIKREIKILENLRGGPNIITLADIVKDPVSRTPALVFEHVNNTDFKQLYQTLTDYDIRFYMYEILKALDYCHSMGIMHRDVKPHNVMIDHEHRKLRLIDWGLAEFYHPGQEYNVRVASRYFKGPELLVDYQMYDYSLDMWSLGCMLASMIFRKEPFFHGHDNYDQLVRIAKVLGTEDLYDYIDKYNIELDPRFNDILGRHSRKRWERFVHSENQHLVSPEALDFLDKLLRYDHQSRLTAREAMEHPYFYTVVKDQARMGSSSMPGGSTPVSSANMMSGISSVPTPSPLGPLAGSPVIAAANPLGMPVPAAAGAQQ
T1 sequence (P67870 whole entry partner): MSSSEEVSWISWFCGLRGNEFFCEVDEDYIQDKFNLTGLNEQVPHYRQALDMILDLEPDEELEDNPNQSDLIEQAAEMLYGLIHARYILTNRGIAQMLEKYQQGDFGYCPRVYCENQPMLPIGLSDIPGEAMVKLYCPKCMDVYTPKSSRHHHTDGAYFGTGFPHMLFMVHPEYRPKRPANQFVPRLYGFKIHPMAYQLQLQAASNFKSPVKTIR

With `Clc1cccc(Nc2nc3c(nc4cnccn43)c3ccncc23)c1` [Example 1, N-(3-chlorophenyl)pyrazino[2′,1′:2.3]imidazo[4,5-c][2.7]naphthyridin-5-amine], the IC50 is 1800 nM in [1]; 2100 nM in [2]; 3.3 µM in test [3]; 1900 nM in test [4]; 1200 nM in test [5]; 3.9 µM in test [6]. For the same molecule, the results for the IC50 in [7], in [8] and in test [9] were 4.8 µM, 4.1 µM and 22 nM, respectively.
